Data reported in patent publication EP0712936B1, “LOW-MOLECULAR DNA FROM STURGEON MILT, A METHOD OF OBTAINING THE DNA AND A PHARMACEUTICAL PREPARATION BASED ON IT” (NAUCHNO-PROIZVODSTVENNOE PREDPRIYATIE "FARMEK", priority 1993, dated 1994).
Read-outs that look alike come from different tables or passages of the source.

Key:
HIV [1] = assay: anti-HIV activity at different modes of administration, quantity of syncytia; type: in vivo; details: placebo 100
HIV [2] = type: cell-based; details: comparison preparation, no ratio
Method: (§1) The antiviral activity of preparations was assessed by the methods recommended for this purpose by the World Health Organization (20, 21). For this purpose we used the cultures of inoculated cell lines SEM and MT-4. The cells were cultured at a concentration of (0.03-0.05)x10^6 cells per 1 ml of PPM1 1640 with 10-% fetal serum of calves, 300 mg/ml of glutamine, 100 mkg/ml of heptamicine and grown in the form of a suspension. The vital activity of cells was checked by coloring them with a 0.4-% solution of trypan blue. The virus sources were strains HIV/IVS and HIV - 1 HTLV/IIIB.
(§2) The suspension of cells was placed into 24-hole boards, treated with different doses of the preparation and infected with HIV. The multiplicity of infection was 0.01 TCD50 per cell. Then the cultures were incubated at 37 C in the atmosphere containing 5% CO2 at a moisture content of 98% for 5-7 days before determining the cytopathic effect of the virus on the cell culture.
A culture of inoculated cells, line CEMSS and MT-4 was used in the experiment. […]
(§3) Then the cultures were incubated at 37 C in the atmosphere containing 5% of CO at a moisture content of 98% for 5-7 days before determining the cytopathic effect of the virus on the cell culture. The formation of viral antigen was assessed by an immunofermental analysis.

HIV [3] = type: cell-based; details: comparison preparation, no ratio; remark: listed apart in the source
Method: as §1, §2
The formation of viral antigen was assessed by immuno-fermental analysis.
as §3

For Cc1cn([C@H]2C[C@H](N=[N+]=[N-])[C@@H](CO)O2)c(=O)[nH]c1=O [AZT (azidothymidine), 3-azi-3-desoxythymidine], the “Qty of syncytia, %” value (HIV [1]; intracerebral) was 10%, the “Qty of syncytia, %” value (HIV [1]; intranasal) was 75% and the “quantity of survived mice / quantity of infected mice” value (nonlinear white mice; intraabdominal, 5 mg/kg) was 6/6. For the same compound, the “quantity of survived mice / quantity of infected mice” value (nonlinear white mice; intraabdominal, 10 mg/kg) was 6/6, the “quantity of survived mice / quantity of infected mice” value (nonlinear white mice; intraabdominal, 20 mg/kg) was 6/6 and the “quantity of survived mice / quantity of infected mice” value (nonlinear white mice; intraabdominal, 35 mg/kg) was 6/6. For the same compound, the “quantity of survived mice / quantity of infected mice” value (nonlinear white mice; intraabdominal, 50 mg/kg) was 6/6, the “quantity of survived mice / quantity of infected mice” value (nonlinear white mice; intraabdominal, 75 mg/kg) was 6/6 and the mortality of mice (nonlinear white mice; intracerebral introduction, doses from 10 to 50 mg/kg) was 50%. For the same compound, the “quantity of survived mice / quantity of infected mice” value (nonlinear white mice; intracerebral, 5 mg/kg) was 6/6, the “quantity of survived mice / quantity of infected mice” value (nonlinear white mice; intracerebral, 10 mg/kg) was 6/6 and the “quantity of survived mice / quantity of infected mice” value (nonlinear white mice; intracerebral, 20 mg/kg) was 6/6. The “quantity of survived mice / quantity of infected mice” value (nonlinear white mice; intracerebral, 35 mg/kg) was 6/6, the “quantity of survived mice / quantity of infected mice” value (nonlinear white mice; intracerebral, 50 mg/kg) was 6/6 and the “quantity of survived mice / quantity of infected mice” value (nonlinear white mice; intracerebral, 75 mg/kg) was 6/6. For the same compound, the “quantity of survived mice / quantity of infected mice” value (nonlinear white mice; intranasal, 5 mg/kg) was 6/6, the “quantity of survived mice / quantity of infected mice” value (nonlinear white mice; intranasal, 10 mg/kg) was 6/6 and the “quantity of survived mice / quantity of infected mice” value (nonlinear white mice; intranasal, 20 mg/kg) was 6/6. For the same compound, the “quantity of survived mice / quantity of infected mice” value (nonlinear white mice; intranasal, 35 mg/kg) was 6/6, the “quantity of survived mice / quantity of infected mice” value (nonlinear white mice; intranasal, 50 mg/kg) was 6/6 and the “quantity of survived mice / quantity of infected mice” value (nonlinear white mice; intranasal, 75 mg/kg) was 6/6. For the same compound, the “quantity of survived mice / quantity of infected mice” value (nonlinear white mice; subcutaneous, 5 mg/kg) was 6/6, the “quantity of survived mice / quantity of infected mice” value (nonlinear white mice; subcutaneous, 10 mg/kg) was 6/6 and the “quantity of survived mice / quantity of infected mice” value (nonlinear white mice; subcutaneous, 20 mg/kg) was 6/6. For the same compound, the “quantity of survived mice / quantity of infected mice” value (nonlinear white mice; subcutaneous, 35 mg/kg) was 6/6, the “quantity of survived mice / quantity of infected mice” value (nonlinear white mice; subcutaneous, 50 mg/kg) was 6/6 and the “quantity of survived mice / quantity of infected mice” value (nonlinear white mice; subcutaneous, 75 mg/kg) was 6/6. For the same compound, the “No of syncytia, % of virus control” value (HIV [2]) was 8%, the “Data of immuno-enzyme analysis” value (HIV [3]) was 0.1 mg/mg and the “Data of immuno-enzyme analysis, optical density” value (HIV [3]) was 0.091.
